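96-well plates; 48 h exposure; 5 concentrations. Endpoints by linear interpolation between flanking doses. Not reached: highest tested concentration assigned. GI50 marks 50% less growth. At the TGI there is no net growth.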
Assays:
Assay in all cases: NCI anticancer screen, dose series, 48 h
EKVX NSCLC = system: EKVX NSCLC
HOP-62 NSCLC = system: HOP-62 NSCLC
K-562 leukemia = system: K-562 leukemia
M14 melanoma = system: M14 melanoma
NCI-H23 lung = system: NCI-H23 lung
RPMI-8226 leukemia = system: RPMI-8226 leukemia
SK-MEL-5 melanoma = system: SK-MEL-5 melanoma
T-47D breast = system: T-47D breast
HCC-2998 colon = system: HCC-2998 colon
SNB-75 CNS = system: SNB-75 CNS

Compound | TGI (EKVX NSCLC) | TGI (HOP-62 NSCLC) | TGI (K-562 leukemia) | TGI (M14 melanoma) | TGI (NCI-H23 lung) | TGI (RPMI-8226 leukemia) | TGI (SK-MEL-5 melanoma) | TGI (T-47D breast) | TGI (HCC-2998 colon) | TGI (SNB-75 CNS) | GI50 (SNB-75 CNS) | GI50 (EKVX NSCLC) | GI50 (HCC-2998 colon) | GI50 (HOP-62 NSCLC) | GI50 (K-562 leukemia) | GI50 (M14 melanoma) | GI50 (NCI-H23 lung) | GI50 (RPMI-8226 leukemia) | GI50 (SK-MEL-5 melanoma) | GI50 (T-47D breast)
COc1ccc(-c2cc(-c3ccc(O)cc3O)c(C#N)c(=O)[nH]2)cc1 | 41.6 µM | 41.1 µM | 77 µM | 35.4 µM | 71.1 µM | 43.5 µM | 34.6 µM | > 100 µM | – | – | – | – | – | – | – | – | – | – | – | –
Cn1ccc(C(=O)NCCN(CCNC(=O)c2ccn(C)c(=O)c2O)CCNC(=O)c2ccn(C)c(=O)c2O)c(O)c1=O | – | > 100 µM | > 100 µM | > 100 µM | > 100 µM | > 100 µM | > 100 µM | > 100 µM | > 100 µM | > 100 µM | – | – | – | – | – | – | – | – | – | –
Cc1[nH]c(=O)[nH]c(=O)c1/C=C/C(=O)NC(CO)CS(=O)Cc1ccccc1 (stereo not given) | > 300 µM | > 300 µM | > 300 µM | – | > 300 µM | > 300 µM | > 300 µM | – | > 300 µM | > 300 µM | – | – | – | – | – | – | – | – | – | –
COc1cc(/C=N\c2nc(-c3ccc(NS(=O)(=O)c4ccc(Cl)c(OC)c4)cc3)cs2)ccc1O | > 100 µM | > 100 µM | > 100 µM | > 100 µM | 88.8 µM | 74.2 µM | > 100 µM | 59.1 µM | – | > 100 µM | – | – | – | – | – | – | – | – | – | –
NNC(=O)CCSc1ccccc1 | > 100 µM | > 100 µM | > 100 µM | > 100 µM | > 100 µM | > 100 µM | > 100 µM | > 100 µM | > 100 µM | > 100 µM | – | – | – | – | – | – | – | – | – | –
CN(C)CCCSc1nc2c(c(=N)n1-c1ccccc1)c(=S)n(-c1ccccc1)c(=S)n2-c1ccccc1 | 3.58 µM | 3.4 µM | 3.81 µM | 3.76 µM | 4.45 µM | 1.84 µM | 3.79 µM | 4.62 µM | 2.82 µM | 3.05 µM | – | – | – | – | – | – | – | – | – | –
CCOC(=O)C(Cc1cn(C(C)=O)c2ccccc12)P(=O)(OCC)OCC (stereo not given) | – | > 100 µM | > 100 µM | > 100 µM | > 100 µM | > 100 µM | > 100 µM | > 100 µM | > 100 µM | > 100 µM | – | – | – | – | – | – | – | – | – | –
c1ccc(C(NC2=NCCO2)c2ccccc2)cc1 | > 10 µM | > 10 µM | > 10 µM | > 10 µM | > 10 µM | > 10 µM | > 10 µM | > 10 µM | > 10 µM | > 10 µM | – | – | – | – | – | – | – | – | – | –
Cn1ncc2c(Nc3cccc(Cl)c3)nc(Nc3cccc(Cl)c3)nc21 | 54.8 µM | 68.6 µM | 19.2 µM | > 58.4 µM | 57.1 µM | 19.8 µM | > 51.6 µM | 37 µM | 27.6 µM | 31.1 µM | – | – | – | – | – | – | – | – | – | –
COc1ccc(C(O)(c2ccccc2)c2nccc3ccccc23)cc1 (stereo not given) | 36.9 µM | > 100 µM | > 100 µM | 8.34 µM | > 100 µM | > 100 µM | 12.7 µM | > 100 µM | – | – | – | – | – | – | – | – | – | – | – | –
O=C(O)CCc1nc2ccccc2[nH]1 | > 100 µM | > 100 µM | > 100 µM | > 100 µM | > 100 µM | > 100 µM | > 100 µM | > 100 µM | > 100 µM | > 100 µM | – | – | – | – | – | – | – | – | – | –
C/C(=N\NC(=S)N(C)C)c1nc2ncccc2[nH]1 | > 100 µM | > 100 µM | > 100 µM | – | – | > 100 µM | 1.87 µM | 14.7 µM | – | > 100 µM | – | – | – | – | – | – | – | – | – | –
COc1cc2cc(C(=O)Nc3cc4n(n3)-c3ccccc3C4)[nH]c2c(OC)c1OC | 11.5 µM | 6.43 µM | 14.9 µM | 6.86 µM | 10.5 µM | 3.14 µM | 5.23 µM | 2.39 µM | 21 µM | 13.9 µM | – | – | – | – | – | – | – | – | – | –
O=[N+]([O-])c1ccc(Oc2c(Cl)cc(S(=O)(=O)/N=C(\NO)Nc3ccc(Cl)cc3)cc2Cl)c(Cl)c1 | 28 µM | 30.3 µM | 35 µM | 30.1 µM | 34.5 µM | 34.3 µM | 31.3 µM | 67.7 µM | 31.2 µM | – | – | – | – | – | – | – | – | – | – | –
O=c1/c(=C/c2ccc([N+](=O)[O-])o2)sc2n1[C@@H](c1ccc(Cl)cc1)C=C(c1cc(F)c(Cl)cc1Cl)N=2 | – | 30.6 µM | 36.9 µM | 29.1 µM | 39.4 µM | 25.9 µM | 28.8 µM | 52.7 µM | – | > 100 µM | – | – | – | – | – | – | – | – | – | –
CCOC(=O)CCSc1nc2ccc(I)cc2c(=O)n1Cc1ccccc1 | 82.4 µM | > 75.2 µM | > 100 µM | > 100 µM | > 64.4 µM | 33.5 µM | 32 µM | > 100 µM | > 71.2 µM | > 100 µM | – | – | – | – | – | – | – | – | – | –
OCCCNc1ncnc2[nH]ncc12 | > 100 µM | > 100 µM | > 100 µM | > 100 µM | > 100 µM | > 100 µM | > 100 µM | > 100 µM | > 100 µM | > 100 µM | – | – | – | – | – | – | – | – | – | –
CC(Oc1ccccc1Cl)C(=O)NN1C(=O)CC(=O)NC1=S (stereo not given) | > 100 µM | > 100 µM | > 100 µM | > 100 µM | > 100 µM | > 100 µM | > 100 µM | > 100 µM | > 100 µM | > 100 µM | – | – | – | – | – | – | – | – | – | –
COc1cc2c(cc1OCCCOS(C)(=O)=O)N=C[C@@H]1CCCN1C2=O | > 100 µM | – | – | > 100 µM | > 100 µM | > 100 µM | > 100 µM | > 100 µM | > 100 µM | > 100 µM | 94.7 µM | – | – | – | – | – | – | – | – | –
O=C(Nc1ccc(-n2cc(-c3ccncc3)c(-c3ccc(O)c(Cl)c3)n2)cc1)Nc1ccc(Cl)c(C(F)(F)F)c1 | 25.4 µM | 27.6 µM | 49.4 µM | 6.33 µM | 22 µM | 5.32 µM | 10.7 µM | 64.1 µM | 20.1 µM | 14.3 µM | 2.59 µM | 3.21 µM | 4.65 µM | 6.56 µM | 3.89 µM | 2.48 µM | 3.56 µM | 1.99 µM | 2.87 µM | 8.61 µM
O=C(O)c1cc(=O)c2c(OCC(O)COc3cccc4oc(C(=O)O)cc(=O)c34)cccc2o1 | > 100 µM | > 100 µM | > 100 µM | > 100 µM | > 100 µM | > 100 µM | 99.2 µM | > 100 µM | > 100 µM | > 100 µM | – | – | – | – | – | – | – | – | – | –
NC(=O)c1cccc(N=c2oc3ccc(Br)cc3cc2-c2nc3ccccc3[nH]2)c1 | 32.6 µM | 33.8 µM | 96.1 µM | 32.3 µM | 32.7 µM | 53.4 µM | 11.3 µM | 29.2 µM | 34.9 µM | 23.6 µM | – | – | – | – | – | – | – | – | – | –
CC(=O)O[C@@H]1C(=O)N(c2ccccc2)[C@@H]1c1cc2ccccc2c2ccccc12 | > 100 µM | > 100 µM | > 100 µM | > 100 µM | > 100 µM | 82.6 µM | 59.4 µM | 85.7 µM | 61.2 µM | – | – | – | – | – | – | – | – | – | – | –
CC(C)CC(=O)NC(C(=O)NC(C(=O)NC(CC(C)C)C(O)CC(=O)NC(C)C(=O)NC(CC(C)C)C(O)CC(=O)O)C(C)C)C(C)C (stereo not given) | > 100 µM | > 100 µM | > 100 µM | > 100 µM | > 100 µM | > 100 µM | > 100 µM | – | > 100 µM | > 100 µM | – | – | – | – | – | – | – | – | – | –
Cc1c2c(OCC(O)CN3CCN(c4ccccc4)CC3)nn(C)c(=O)c2c(C)n1-c1ccccc1 (stereo not given) | > 100 µM | > 100 µM | 69.2 µM | 30.7 µM | 46.4 µM | 52.5 µM | 30.3 µM | 71.8 µM | 78.3 µM | 75.5 µM | – | – | – | – | – | – | – | – | – | –
Nc1ccc(Oc2ccc(C3(c4ccc(Oc5ccc(N)cc5)cc4)C4CC5CC(C4)CC3C5)cc2)cc1 | > 81.4 µM | 32.3 µM | > 100 µM | 17 µM | > 48.3 µM | 17.4 µM | > 100 µM | – | – | > 100 µM | – | – | – | – | – | – | – | – | – | –
C#C/C=C\CCCCCCCCCCCCCC/C=C\CCCCC#CC(O)C#CCCCC/C=C\CCCCCC/C=C/C(O)C#C (stereo not given) | 35.9 µM | > 75 µM | > 75 µM | > 38.3 µM | > 42.6 µM | – | 17.6 µM | 26 µM | 37 µM | > 75 µM | – | – | – | – | – | – | – | – | – | –
CC(C)C(=O)CC(c1ccc(Cl)cc1)N1N=C(C(C)C)CC1c1ccc(Cl)cc1 (stereo not given) | > 100 µM | > 100 µM | > 100 µM | > 100 µM | > 100 µM | > 100 µM | > 100 µM | – | > 100 µM | > 100 µM | – | – | – | – | – | 54.5 µM | – | – | – | –
C/C(=N\NC(=S)NCCCCNC(=S)N/N=C(\C)c1ccccn1)c1ccccc1 | > 100 µM | 6 µM | > 100 µM | – | 25.3 µM | 14.3 µM | – | – | > 100 µM | 9.92 µM | – | – | – | – | – | – | – | – | – | –
C=CCN1C[C@H](C)N([C@@H](c2ccc(C(=O)N3CCCCC3)cc2)c2cccc(OC)c2)C[C@H]1C | > 100 µM | > 100 µM | 60.8 µM | 34.9 µM | > 100 µM | – | 33.6 µM | 76 µM | 99.5 µM | > 100 µM | – | – | – | – | – | – | – | – | – | –
